Data from ChEMBL document CHEMBL2040840, “New quinoline-5,8-dione and hydroxynaphthoquinone derivatives inhibit a chloroquine resistant Plasmodium falciparum strain” (Eur J Med Chem, 2012).
The source made the active and inactive calls. No cut-off for these calls is given here.

Assays:
Plasmodium falciparum [1] = test: Antiplasmodial activity against Plasmodium falciparum NF54 infected in human erythrocytes after 72 hrs by geimsa staining; assay type: functional, organism-based; conditions: for IC50: NF54, 72 h
Plasmodium falciparum [2] = test: Antiplasmodial activity against Plasmodium falciparum NF54 infected in human erythrocytes assessed as decrease in parasitemia measured on day 2 post-treatment by geimsa staining (reference value: 1.1 +/- 0.09%); assay type: functional; design: scale not given: the % may be the effect or the level left
Plasmodium falciparum [3] = test: Antiplasmodial activity against Plasmodium falciparum NF54 infected in human erythrocytes assessed as decrease in parasitemia measured on day 1 post-treatment by geimsa staining (reference value: 0.65 +/- 02%); assay type: functional; design: scale not given: the % may be the effect or the level left
Plasmodium falciparum [4] = test: Antiplasmodial activity against Plasmodium falciparum NF54 infected in human erythrocytes assessed as decrease in parasitemia measured on day 4 post-treatment by geimsa staining (reference value: 3.28 +/- 0.11%); assay type: functional; design: scale not given: the % may be the effect or the level left
Plasmodium falciparum [5] = test: Antiplasmodial activity against Plasmodium falciparum NF54 infected in human erythrocytes assessed as decrease in parasitemia measured on day 3 post-treatment by geimsa staining (reference value: 2.18 +/- 0.17%); assay type: functional; design: scale not given: the % may be the effect or the level left

SMILES	IC50 (Plasmodium falciparum [1]) [µM]	Activity (Plasmodium falciparum [1])	Activity (Plasmodium falciparum [2]) [%]	Activity (Plasmodium falciparum [3]) [%]	Activity (Plasmodium falciparum [4]) [%]	Activity (Plasmodium falciparum [5]) [%]
Oc1c(Br)cc(Br)c2cccnc12		inactive				
Cc1ccc2c(Br)cc(Br)c(O)c2n1 [BROQUINALDOL]	7.54					
Cc1ccc2c(n1)C(=O)C(Br)=C(NN1CCN(N)CC1)C2=O	4.1		0.28	0.48	0	0.07
CCN(CC)CCCC(C)Nc1ccnc2cc(Cl)ccc12 (configuration not stated) [CHLOROQUINE]			0	0.06	0	0
CCCc1ccc(-c2ccc(NC3=C(Br)C(=O)c4nc(C)ccc4C3=O)cc2)cc1	4.37		0.19	0.42	0	0.05

Further molecules by falling IC50 (Plasmodium falciparum [1]), results first:

IC50 (Plasmodium falciparum [1]) [µM]	SMILES	Activity (Plasmodium falciparum [1])	Activity (Plasmodium falciparum [2]) [%]	Activity (Plasmodium falciparum [3]) [%]	Activity (Plasmodium falciparum [4]) [%]	Activity (Plasmodium falciparum [5]) [%]
3.96	Cc1ccc2c(n1)C(=O)C=C(N1CCN(c3ccccc3)CC1)C2=O		0.25	0.43	0	0.04
3.93	Cc1ccc2c(n1)C(=O)C(Br)=C(NN1CCN(NC3=C(Br)C(=O)c4nc(C)ccc4C3=O)CC1)C2=O		0.49	0.65	0	0.05
3.89	O=C1C(O)=C(N2CCN(c3ccccc3)CC2)C(=O)c2ccccc21		0.26	0.5	0	0.03
3	CCCc1ccc(-c2ccc(NC3=C(Br)C(=O)c4ncccc4C3=O)cc2)cc1					
2.21	Cc1ccc2c(n1)C(=O)C(Br)=C(N1CCN(c3ccccc3)CC1)C2=O		0.29	0.46	0	0
